Test results: the CheMixHub viscosity set

Experiment: xn = mol fraction of the nth substance listed

[Br-].[Na+] + O
viscosity [mPa·s]
Conditions | 100 kPa | 101.3 kPa
293.15 K, x1 = 0.0009 | – | 1.005
293.15 K, x1 = 0.0018 | – | 1.007
293.15 K, x1 = 0.00893 | – | 1.027
293.15 K, x1 = 0.0177 | – | 1.055
293.15 K, x1 = 0.03478 | – | 1.131
293.15 K, x1 = 0.05127 | – | 1.235
293.15 K, x1 = 0.06722 | – | 1.368
293.15 K, x1 = 0.09755 | – | 1.746
293.15 K, x1 = 0.126 | – | 2.317
298.15 K, x1 = 0.00088 | 0.8936 | –
298.15 K, x1 = 0.0009 | – | 0.8935
298.15 K, x1 = 0.0018 | – | 0.8956
298.15 K, x1 = 0.00351 | 0.895 | –
298.15 K, x1 = 0.00368 | 0.9007 | –
298.15 K, x1 = 0.00829 | 0.9176 | –
298.15 K, x1 = 0.00879 | 0.9099 | –
298.15 K, x1 = 0.00893 | – | 0.9162
298.15 K, x1 = 0.0101 | 0.9211 | –
298.15 K, x1 = 0.0146 | 0.9363 | –
298.15 K, x1 = 0.0177 | 0.9479 | 0.9443
298.15 K, x1 = 0.01952 | 0.9523 | –
298.15 K, x1 = 0.02624 | 0.9808 | –
298.15 K, x1 = 0.03478 | – | 1.016
298.15 K, x1 = 0.03489 | 1.022 | –
298.15 K, x1 = 0.04115 | 1.054 | –
298.15 K, x1 = 0.05064 | 1.112 | –
298.15 K, x1 = 0.05127 | – | 1.111
298.15 K, x1 = 0.05382 | 1.186 | –
298.15 K, x1 = 0.06722 | – | 1.231
298.15 K, x1 = 0.08817 | 1.474 | –
298.15 K, x1 = 0.09755 | – | 1.563
298.15 K, x1 = 0.126 | – | 2.052
303.15 K, x1 = 0.0009 | – | 0.8006
303.15 K, x1 = 0.0018 | – | 0.803
303.15 K, x1 = 0.00893 | – | 0.824
303.15 K, x1 = 0.0177 | – | 0.8517
303.15 K, x1 = 0.03478 | – | 0.9187
303.15 K, x1 = 0.05127 | – | 1.006
303.15 K, x1 = 0.06722 | – | 1.114
303.15 K, x1 = 0.09755 | – | 1.407
303.15 K, x1 = 0.126 | – | 1.833
303.74 K, x1 = 0.03489 | 0.9102 | –
303.75 K, x1 = 0.05064 | 0.9936 | –
303.86 K, x1 = 0.04115 | 0.9393 | –
306.42 K, x1 = 0.00829 | 0.7716 | –
308.15 K, x1 = 0.0009 | – | 0.7225
308.15 K, x1 = 0.0018 | – | 0.7249
308.15 K, x1 = 0.00893 | – | 0.7458
308.15 K, x1 = 0.0177 | – | 0.7722
308.15 K, x1 = 0.03478 | – | 0.8359
308.15 K, x1 = 0.05127 | – | 0.9163
308.15 K, x1 = 0.06722 | – | 1.014
308.15 K, x1 = 0.09755 | – | 1.277
308.15 K, x1 = 0.126 | – | 1.649
308.44 K, x1 = 0.01952 | 0.7804 | –
308.74 K, x1 = 0.00088 | 0.7144 | –
308.75 K, x1 = 0.02624 | 0.7947 | –
308.94 K, x1 = 0.0146 | 0.7534 | –
309.24 K, x1 = 0.0101 | 0.7342 | –
310.75 K, x1 = 0.05064 | 0.8742 | –
311.42 K, x1 = 0.04115 | 0.8205 | –
311.74 K, x1 = 0.00368 | 0.6805 | –
313.15 K, x1 = 0.0009 | – | 0.6562
313.15 K, x1 = 0.0018 | – | 0.6587
313.15 K, x1 = 0.00893 | – | 0.679
313.15 K, x1 = 0.0177 | – | 0.7046
313.15 K, x1 = 0.03478 | – | 0.7648
313.15 K, x1 = 0.05127 | – | 0.8392
313.15 K, x1 = 0.06722 | – | 0.929
313.15 K, x1 = 0.09755 | – | 1.165
313.15 K, x1 = 0.126 | – | 1.494
318.15 K, x1 = 0.0009 | – | 0.5992
318.15 K, x1 = 0.0018 | – | 0.6017
318.15 K, x1 = 0.00893 | – | 0.6213
318.15 K, x1 = 0.0177 | – | 0.646
318.15 K, x1 = 0.03478 | – | 0.7032
318.15 K, x1 = 0.05127 | – | 0.7724
318.15 K, x1 = 0.06722 | – | 0.855
318.15 K, x1 = 0.09755 | – | 1.069
318.15 K, x1 = 0.126 | – | 1.363
323.02 K, x1 = 0.00088 | 0.5507 | –
323.15 K, x1 = 0.0009 | – | 0.5496
323.15 K, x1 = 0.0018 | – | 0.5519
323.15 K, x1 = 0.00351 | 0.5505 | –
323.15 K, x1 = 0.00879 | 0.5603 | –
323.15 K, x1 = 0.00893 | – | 0.5708
323.15 K, x1 = 0.0177 | 0.5834 | 0.5948
323.15 K, x1 = 0.03478 | – | 0.6489
323.15 K, x1 = 0.05127 | – | 0.7136
323.15 K, x1 = 0.05382 | 0.7427 | –
323.15 K, x1 = 0.06722 | – | 0.7896
323.15 K, x1 = 0.08817 | 0.9292 | –
323.15 K, x1 = 0.09755 | – | 0.9845
323.15 K, x1 = 0.126 | – | 1.248
